The text below walks through data of ChEMBL document CHEMBL3507680, “University of Dundee, Gates Library screen for HepG2 cell viability”.

Each structure is given as a SMILES string.

This data set in a line: Human HepG2 cell viability assay in 384 well format. It is filed as toxicity, cell-based. Set-up: dose 125 nL, time 70.5 hour; cytotoxicity at 70.5 h: concentration not given beside the values. Conditions: HepG2 cells, read-out: Inhibition.
For the molecule `CCc1ccc(CN2CC[C@@H]3NC(=O)CC[C@@H]32)o1`, the cytotoxicity at 70.5 h was found to be 27%. Next, `Cc1cnc(C)c(Oc2ccc(CN3CCCC3)cc2Cl)n1`: -4.06%; `COc1ccc(C[C@H]2CN(Cc3ccoc3)CC[C@@H]2OC)cc1`: -2.46%; `CC(=O)N1CCCC(c2nc(N(C)C)ncc2-c2ccccc2)C1` (centres undefined): 3.58%.

Regarding `O=C(Cn1cc(C2CC2)nn1)N(Cc1cccs1)CC1CCCO1` (centres undefined), the cytotoxicity at 70.5 h came out at 10.4%. For `OC[C@@H]1CCCN1c1ccc(-c2nc(CCc3ccccc3)no2)cn1`, the cytotoxicity at 70.5 h was -4.61%. Next, `CNC(=O)c1ccc(NC(=O)NC(C)CCc2cccn2C)c(C)c1` (centres undefined): -0.342%; `CC(C)(C)C(=O)Cn1nc(-c2ccccc2F)ccc1=O`: -21.7%; `CCCN(CCc1ccccn1)C(=O)CCc1cnn(C)c1`: -10.1%. Take `CC1(c2[nH]ncc2C(N)=O)CCN(S(=O)(=O)c2ccccc2)CC1`: the cytotoxicity at 70.5 h was -2.57%. Turning to `CCc1nnsc1C(=O)N1CCOC(c2nc(C(C)C)n[nH]2)C1` (centres undefined), the cytotoxicity at 70.5 h is -2.32%. In the case of `COc1ccc(C)cc1NC(=O)Nc1cnc(O)nc1O`, the cytotoxicity at 70.5 h is -6.34%.

In the case of `Nc1nnc(C2CC(=O)N(c3ccccc3)C2)s1` (centres undefined), the cytotoxicity at 70.5 h is -16.4%.

For the molecule `CC(c1ccccc1F)N1CCN(C(=O)Cc2ccncc2)CC1` (centres undefined), the cytotoxicity at 70.5 h was -11.8%. Turning to `O=C(c1cc(F)cc2[nH]cnc12)N1CCCCC1Cn1cccn1` (centres undefined), the cytotoxicity at 70.5 h is -7.7%. On to `Cc1cc(S(=O)(=O)NC(=O)CCc2cccnc2)c(C)s1`, for which the cytotoxicity at 70.5 h is 1.22%. With `COc1ccc(-c2noc(CCC(=O)N3CCOCC3(C)C)n2)cc1`, the cytotoxicity at 70.5 h is -3.78%. As for `CN(C)CCN(Cc1ccc(Cl)cc1)C(=O)c1ccncc1`, the cytotoxicity at 70.5 h was -1.83%. `CC(Cn1cccn1)C(=O)N1CCC(Nc2cccnn2)CC1` (centres undefined): the cytotoxicity at 70.5 h was -10%.

Take `COc1cccc([C@@H](C)n2ccnc2-c2cc3n(n2)CCNC3)c1`: the cytotoxicity at 70.5 h is -10.2%. For the molecule `CCn1cc(C2=CCN(CCCOc3ccccc3)CC2)cn1`, the cytotoxicity at 70.5 h worked out at 0.137%.

As for `CCn1cc(NC(=O)NCCN2CCCCCC2=O)cn1`, the cytotoxicity at 70.5 h was -6.34%. Consider `Cc1cnn(C2CCCN(C(=O)c3ccc(NC4CC4)nc3)C2)c1` (centres undefined), for which the cytotoxicity at 70.5 h is -13.3%.

In the case of `Cc1ccc(C(=O)NC2CCN(C)CC2)cc1N(C)S(C)(=O)=O`, the cytotoxicity at 70.5 h is -6.98%. Consider `O=C(c1ccc(NCc2cccc(F)c2)cc1)N1CCC(CO)CC1`, for which the cytotoxicity at 70.5 h was 2.87%.

As to `CCCc1nnc(NCc2ccc(OC)c(C#N)c2)o1`, the cytotoxicity at 70.5 h stood at 20.2%. Take `CS(=O)(=O)NCc1cc2n(n1)CCCN(Cc1nc3ccccc3[nH]1)C2`: the cytotoxicity at 70.5 h is -8.44%. As to `CCN(CC1CCCN(CCc2cccc(OC)c2)C1)C(=O)CO` (centres undefined), the cytotoxicity at 70.5 h was -0.648%.

Regarding `CCC(C)C(=O)NCCc1nc(C(F)(F)F)cs1` (centres undefined), the cytotoxicity at 70.5 h was -6.38%. Consider `O=C(NCc1nncn1C1CC1)C1(c2ccc(F)cc2)CCCC1`, for which the cytotoxicity at 70.5 h was determined as 14.3%.

In the case of `Cc1[nH]ncc1C(=O)NCC(CO)Cc1ccc(Cl)cc1` (centres undefined), the cytotoxicity at 70.5 h was -5.24%. As for `CCc1nccn1C1CCCN(C(=O)c2csc(NC(C)=O)n2)C1` (centres undefined), the cytotoxicity at 70.5 h was -16.5%. Turning to `Cn1nnnc1SCCNC(=O)c1c[nH]nc1C1CCCCC1`, the cytotoxicity at 70.5 h is -9.31%. On to `Cc1cc(CN(C)C(=O)NC2CCCN(c3ncccn3)C2)no1` (centres undefined), for which the cytotoxicity at 70.5 h was -3.61%. Under `Cc1noc(C)c1C(=O)N(Cc1ccsc1)CC1CCCO1` (centres undefined) stands 3.1%; under `c1cnnc(N[C@@H]2CC[C@@H]3CN(Cc4c[nH]c5ccccc45)C[C@@H]32)c1`, 4.96%. `CNC(=O)CNCc1c[nH]nc1-c1cc2ccccc2o1`: the cytotoxicity at 70.5 h is -1.2%.

For the molecule `CCn1cc(CNC(=O)CC(C)C)cn1`, the cytotoxicity at 70.5 h was determined as 3.41%. Next, `O=C(CSc1ccccc1)Nc1cnn(CC(=O)N2CCCO2)c1`: -2.01%; `Cc1cccc(C)c1OCCNC(=O)CNC(=O)C1CCCC1`: 23.5%. `COc1ccc(C2CC(=O)Nc3c2nc2n3CCCC2)cc1O` (centres undefined): the cytotoxicity at 70.5 h was -15.2%. As for `CCC(C#N)NC(=O)c1ccc(Oc2cccnc2)cc1` (centres undefined), the cytotoxicity at 70.5 h was -8.45%. Take `Cc1cc(-n2c(C)cn(CN(C)Cc3ccccc3)c2=O)no1`: the cytotoxicity at 70.5 h is -5.85%. For `O=C(N1CCCC(n2cncn2)C1)C1(c2ccccc2F)CCCC1` (centres undefined), the cytotoxicity at 70.5 h was -5.6%. Under `CNc1cc(N2CCCC2CNCc2cnc(C)cn2)ncn1` (centres undefined) stands -8.09%. Regarding `O=C(Cc1ccsc1)N1CCc2ccc(=O)n(CC3CC3)c2CC1`, the cytotoxicity at 70.5 h is -3.62%. On to `O=S1(=O)NCC2(CCN(c3ncc(F)cn3)CC2)COc2ccccc21`, for which the cytotoxicity at 70.5 h is -0.496%.

With `COc1ccc(CN2CCCC(Nc3cccc(F)c3)C2)cc1O` (centres undefined), the cytotoxicity at 70.5 h was -2.89%.

With `CCCc1cc(C(=O)N2C[C@H]3CCC[C@@]3(CO)C2)[nH]n1`, the cytotoxicity at 70.5 h was -7.84%.

For `Cn1ccc2c(-c3cc(N4CCOCC4)ncn3)ccnc21`, the cytotoxicity at 70.5 h is -6.11%. Consider `Cc1nn2c(N3CCC(O)CC3)cc(-c3ccccc3)nc2c1C`, for which the cytotoxicity at 70.5 h was -3.29%.

As for `COCCC(=O)N1CCCC(c2nc(O)cc(-c3ccncc3)n2)C1` (centres undefined), the cytotoxicity at 70.5 h is 18%.

For `CCN(CCC(=O)NC1CC1)Cc1ccc(Cl)s1`, the cytotoxicity at 70.5 h is -11.3%.

With `COCCC(=O)N1C[C@@H]2COC[C@]2(COCc2cccnc2)C1`, the cytotoxicity at 70.5 h was -13.6%. As for `CSCC[C@H](N)C(=O)NCc1cc2n(n1)CCCN(C(=O)C1CCC1)C2`, the cytotoxicity at 70.5 h was -4.43%. Next, `CN1CCC(c2nnc3ccc(C(=O)N4CCCCC4)cn23)C1` (centres undefined): -9.66%.

Turning to `Cc1ccc(F)c(NS(=O)(=O)c2cc(C(=O)O)oc2C)c1`, the cytotoxicity at 70.5 h was -10%. With `CCc1c(C)nc2n(c1=O)CC(C(=O)NCc1cccs1)CS2` (centres undefined), the cytotoxicity at 70.5 h is 23%. In the case of `CCOc1nnc(CN2CCC(c3nc4ccccc4[nH]3)CC2)s1`, the cytotoxicity at 70.5 h came out at 1.06%.

As to `CC(CS(C)(=O)=O)N(C)C(=O)NCCCc1ccc(Cl)cc1` (centres undefined), the cytotoxicity at 70.5 h was -3.65%. For the molecule `CN1CCN(C(=O)CCC(=O)c2cccs2)Cc2ccccc21`, the cytotoxicity at 70.5 h was -0.893%. Regarding `Cc1nc(Nc2nnc(C)s2)cc(C2CCCN2c2ccncc2)n1` (centres undefined), the cytotoxicity at 70.5 h is -5.11%. In the case of `Cc1noc(C)c1-c1n[nH]c2c1CN(S(=O)(=O)c1ccsc1)CC2`, the cytotoxicity at 70.5 h was 15.3%. Consider `O=C(Nc1cccnc1)C1CN(C(=O)c2ccc3c(c2)OCO3)C1`, for which the cytotoxicity at 70.5 h is -14.4%. As to `COCC(=O)N1C[C@@H]2COC[C@]2(COC)C1`, the cytotoxicity at 70.5 h was -9.06%. For `Cc1cc(I)c2c(c1)C(=O)C(CN1CCCC1)(CN1CCCC1)CO2`, the cytotoxicity at 70.5 h was -0.395%. `O=C1N[C@H]2OCCC[C@H]2[C@H](c2ccccc2C(=O)O)N1`: the cytotoxicity at 70.5 h worked out at 13.9%. Next, `O=C(Nc1cc(CCC2CCN(CCO)CC2)ccn1)c1ccccn1`: 45.9%; `Cc1cc2ccccc2n1CCC(=O)N1CCC[C@H]1C(N)=O`: -6.97%.

With `COC(=O)c1ccc(S(=O)(=O)N(C)CC(N)=O)c(Cl)c1`, the cytotoxicity at 70.5 h is -3.22%. On to `C1CCN(CCOC2CCNCC2)CC1`, for which the cytotoxicity at 70.5 h was determined as 19.9%. Turning to `Cc1nc(CN2CCC3(CCCN(Cc4cccnc4)C3)C2=O)cs1` (centres undefined), the cytotoxicity at 70.5 h stood at 26.7%. As for `N#CCCN(c1ccccc1)S(=O)(=O)CC1CCCCO1` (centres undefined), the cytotoxicity at 70.5 h was -9.85%. Next, `Cc1ccc2c(n1)N(CCN(C)C)CCN(C(=O)c1ccco1)C2`: -4.83%. In the case of `Cc1cccc(NC2CCN(C(=O)Nc3cc(F)cc(F)c3)CC2)n1`, the cytotoxicity at 70.5 h was 42.8%.

For `NC(=O)NC(=O)CCN1CCCC1c1cccc2c1OCCO2` (centres undefined), the cytotoxicity at 70.5 h is -11.6%. Take `c1cnn(CCC2CCCCN2Cc2cnc(C3CCCCC3)nc2)c1` (centres undefined): the cytotoxicity at 70.5 h is -8.97%. Under `Cc1cc(-c2cnc(N3CCCC(C)C3)nc2C(C)C)on1` (centres undefined) stands 18.8%; under `CCOc1ccc(Cl)c(C(=O)NCCC(=O)Nc2ccccn2)n1`, -6.63%. On to `CN1CCOC(CNCc2coc(-c3cccc(Cl)c3)n2)C1` (centres undefined), for which the cytotoxicity at 70.5 h was -0.236%. Consider `CSc1ccc(-c2nc(CN3CCC(CN)C3)c(C)o2)cc1` (centres undefined), for which the cytotoxicity at 70.5 h is -3.18%.

Consider `Cc1cnn(CCNCc2nnc(-c3occc3C)o2)c1`, for which the cytotoxicity at 70.5 h was -5.91%. Consider `Cc1cc(C)n(C2CCCN(C(=O)c3ccc(F)cc3F)C2)n1` (centres undefined), for which the cytotoxicity at 70.5 h is -0.896%. On to `CN(C)c1ncccc1CNC(=O)N1CCCC1c1ccsc1` (centres undefined), for which the cytotoxicity at 70.5 h was -16.3%.

`Cc1ccccc1C(=O)N1C[C@@H]2[C@@H](CN(C)CCc3ccccn3)[C@@H]2C1`: the cytotoxicity at 70.5 h was -8.54%. Regarding `CC(C)Oc1ncnc2c1CCN(C(=O)c1cccn1C)CC2`, the cytotoxicity at 70.5 h amounted to 7.42%. Turning to `NC(=O)COc1ccc(CN2CCC3(CC2)[C@H](O)C[C@@H]3O)cc1Cl`, the cytotoxicity at 70.5 h was 19.2%.

As for `Cc1nc(-c2cccc(C#N)c2)nn1CC1(O)CCCCC1`, the cytotoxicity at 70.5 h was determined as 3.88%. Turning to `CCNc1cc2c(nn1)CCN(C(=O)Cc1ccc3c(c1)CCO3)C2`, the cytotoxicity at 70.5 h is -7.37%. Under `CCCc1cc(C(=O)N2CCCC2c2cccnc2)[nH]n1` (centres undefined) stands -5.97%; under `O=C(c1cnc(O)cn1)N1CCCC1c1nc2cc(F)ccc2[nH]1` (centres undefined), -4.45%; under `CCC1=N[C@@]2(CC[C@@H]3CN(S(=O)(=O)CC(C)C)C[C@@H]32)C(=O)N1CC`, 1.37%. Under `O=C(N[C@@H]1CCNC[C@H]1O)c1ccc(O)c(Cl)c1` stands -8.26%; under `CCn1ncnc1CN1CCC(CNC(=O)c2ccccc2C#N)C1` (centres undefined), 0.027%. `OC(CN1CCC(c2ccn[nH]2)CC1)c1cccc(C(F)(F)F)c1` (centres undefined): the cytotoxicity at 70.5 h is -7.35%. As for `CCC(=O)N1CCN(C)C(=O)C(Cc2ccccc2-c2cccs2)C1` (centres undefined), the cytotoxicity at 70.5 h is -1.38%. In the case of `C[C@@H]1CN(Cc2cccnc2)C[C@]12CCN(CCN1CCCC1)C2=O`, the cytotoxicity at 70.5 h was -4.97%. For `CCc1cc(CNC(=O)N(C2CC2)C(C)c2ccco2)on1` (centres undefined), the cytotoxicity at 70.5 h stood at 23.3%. `Cc1cnn(CC2CN(CC(=O)NCc3ccco3)CCO2)c1` (centres undefined): the cytotoxicity at 70.5 h was -15.3%.
